Measurements reported in US10322143B2, “Inhibitors of ADAMTS4 or ADAMTS5 for use in preventing or treating cardiac remodeling and chronic heart failure” (Universitetet i Oslo, priority 2013, dated 2019).
Marks after values point to notes of the source that are not given here.

Key:
[1] = molecular target: ADAMTS5 (Homo sapiens (Human), UniProt Q9UNA0); conditions: previous studies; cited from earlier work
[2] = system: MT4-MMP mRNA; test: MT4-MMP mRNA level (qRT-PCR) in MI rats; format: in vivo, rat; conditions: PPS-treatment
Protocol: (§1) At day 0 to 3 (median 2) after surgery, infarct size was quantified by echocardiography using the Vevo2100 system (Visualsonics Inc, Canada) and magnetic resonance imaging (MRi) using a 9.4 T/210 mm/ASR horizontal bore magnet (Agilent Technologies, Inc., USA). Initially, echocardiography was performed to select moderate to large infarcts ranging approximately 40 to 50%. Thereafter, infarct sizes were exactly measured by late-enhancement gadolinium MRi analyses (Bohl S., et al. American Journal of Physiology, 2009; 296 (4): H1200-H1208) and stratified into small infarcts (stratum 1: <43%, stratum 2: 43-48%), and large infarcts (stratum 3: 48-53%, stratum 4: >53%). The rats in each MI stratum and sham group were randomized to receive intervention or control treatment. The intervention group was treated with 6 mg/kg of sodium PPS (Interfarm AS, Norway), while the control group received vehicle (0.9% NaCl), both injected subcutaneously every third day starting from post-operative day 8-10.
The mRNA levels of the ADAMTS versicanases ADAMTS1, -4, -5, -8, and -20 (Shiomi T, et al. Pathology International 2010; 60(7):477-96), versican, aggrecan, syndecan-4, tissue inhibitor metalloprotease (TIMP)-3, and membrane-type (MT)4-MMP, were quantified in rat left ventricle by qRT-PCR, as previously described in Example 1.

[3] = system: myocardial infarction rats; test: Myocardial infarction rat model: echocardiography, MRI and organ weights after PPS-treatment; format: in vivo; conditions: for EDV (end-diastolic volume, MRI) / Heart weight / LAD (left atrial diameter) / LVDd (left ventricular diameter at diastole) / Lung weight / Max. syst velocity (maximum systolic velocity) / RV weight / VTI (velocity time integral): median (interquartile range)
Text: Male Wistar rats weighing 160-170 grams (approximately 7 weeks old) (Taconic, Skensved Denmark) underwent MI (myocardial infarction) by left coronary artery ligation as described previously (Sjaastad I, et al. J Appl Physiol 2000 October; 89(4):1445-54). In all surgical procedures performed, a mixture of 67% N2O, 28% O2, and 4% isoflurane in an anesthesia chamber was used for preoperative sedation. To maintain anesthesia preoperatively, a mixture of 69% N2O, 29% O2, and 2% isoflurane was given by the endotracheal tube and the animals were ventilated on a respirator (Zoovent, Triumph Technical Services, Milton Keynes, UK). Buprenorphine (0.2 mg/kg) was given as postoperative analgesia after MI. Rats were housed in cages (one or two rats in each cage) with Bee Kay bedding (Scanbur B K, Nittedal, Norway) in 55% humidity on a 12 h light/dark cycle, with food pellets (RM1, 801151, Scanbur B K) and water ad libitum.
as §1
After receiving PPS- or vehicle-treatment for 51 to 56 days (median 55 days), rats were sacrificed after examination by experienced investigators blinded to treatment group. In vivo heart function was evaluated as previously described with echocardiography (Sjaastad I, et al., J Appl Physiol 2000 October; 89(4):1445-54) and MRi (Espe E., Journal of Cardiovascular Magnetic Resonance 2013; 15(1):82). Thereafter, the heart and lung was excised under deep anesthesia, washed in saline and blotted dry to remove blood in the cardiac chambers. The heart chambers were separated by rapid dissection, before left ventricles were divided into infarcted and viable tissue. Lungs and cardiac tissue were snap-frozen in liquid nitrogen and stored at −70° C. until RNA and protein analyses.

[4] = MI strata 1 + 2 (small infarcts) PPS, 6 mg/kg s.c. every third day from day 8-10
[5] = MI strata 3 + 4 (large infarcts) PPS, 6 mg/kg s.c. every third day from day 8-10
[6] = Sham PPS, 6 mg/kg s.c. every third day
[7] = rats with large infarcts, PPS vs vehicle

Chain of ADAMTS5 (Q9UNA0 262-930, species assumed): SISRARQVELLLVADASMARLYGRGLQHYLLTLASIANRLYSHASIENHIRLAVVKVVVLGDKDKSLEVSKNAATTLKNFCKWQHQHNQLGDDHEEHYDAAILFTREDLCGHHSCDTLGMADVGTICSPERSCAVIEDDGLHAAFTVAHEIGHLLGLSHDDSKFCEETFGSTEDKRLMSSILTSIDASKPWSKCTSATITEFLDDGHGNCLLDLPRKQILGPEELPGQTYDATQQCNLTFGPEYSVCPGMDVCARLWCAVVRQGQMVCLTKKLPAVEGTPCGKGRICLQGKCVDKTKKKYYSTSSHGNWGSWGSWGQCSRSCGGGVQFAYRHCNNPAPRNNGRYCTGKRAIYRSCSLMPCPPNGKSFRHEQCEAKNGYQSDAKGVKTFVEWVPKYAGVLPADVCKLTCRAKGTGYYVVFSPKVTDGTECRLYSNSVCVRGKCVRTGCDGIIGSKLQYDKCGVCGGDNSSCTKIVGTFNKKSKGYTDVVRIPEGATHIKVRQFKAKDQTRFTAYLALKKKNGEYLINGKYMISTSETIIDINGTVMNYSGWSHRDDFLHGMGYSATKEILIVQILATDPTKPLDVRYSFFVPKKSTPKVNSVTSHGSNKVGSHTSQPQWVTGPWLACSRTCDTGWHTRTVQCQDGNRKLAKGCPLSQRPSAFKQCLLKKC

## pentosan polysulfate [PPS]
[1]
  aggrecanase activity of ADAMTS5: inhibits
[2]
  mRNA levels of MT4-MMP: decreased
[3]; MI rats, 6 mg/kg s.c. every third day, observed daily
  side effects including hemorrhage: no side effects
[3]; [4]
  EDV (end-diastolic volume, MRI): 614 (524-707)
  Heart weight: 1610 (1450-1760) mg
  LAD (left atrial diameter): 5.32 (4.25-6.50) mm
  LVDd (left ventricular diameter at diastole): 9.91 (9.50-10.29) mm
  Lung weight: 1930 (1450-3420) mg
  Max. syst velocity (maximum systolic velocity): 39.7 (28.3-57.5)
  RV weight: 300 (180-345) mg
  VTI (velocity time integral): 57.9 (50.8-69.6) mm
[3]; [5]
  EDV (end-diastolic volume, MRI): 644 (552-709)
  Heart weight: 1595 (1475-1710) mg
  LAD (left atrial diameter): 6.88 (5.51-7.31) mm
  LVDd (left ventricular diameter at diastole): 10.25 (9.51-10.75) mm
  Lung weight: 2770 (1990-3385) mg
  Max. syst velocity (maximum systolic velocity): 41.7 (31.2-52.0)*
  RV weight: 395 (355-523) mg
  VTI (velocity time integral): 69.8 (51.1-75.9)* mm
[3]; [6]
  EDV (end-diastolic volume, MRI): 293 (256-346)
  Heart weight: 1005 (980-1248) mg
  LAD (left atrial diameter): 3.67 (3.45-3.73) mm
  LVDd (left ventricular diameter at diastole): 6.91 (6.60-7.88) mm
  Lung weight: 1255 (1158-1280) mg
  Max. syst velocity (maximum systolic velocity): 64.0 (46.6-67.2)
  RV weight: 168 (160-208) mg
  VTI (velocity time integral): 58.5 (53.9-65.5) mm
[3]; rats with large infarcts, PPS vs corresponding vehicle-treated rats
  reduction in heart weight: ~25%
[3]; [7]
  maximum systolic velocity after PPS-treatment: improved
  reduction in left atrial diameter: 10%
  reduction in lung weight: 1/3
  velocity time integral after PPS-treatment: improved
